Experimental data taken from article PMC7044277 (Nature Communications, 2020).
Where “and” joins values, the source holds several entries; their conditions need not be identical. Equal entries are not always repeated.

Columns and labels:
Assay type in all cases: cell-based
[1] = target: T1, 320 non-olfactory GPCRs (Homo sapiens, UniProt P43088); settings: receptor PTGFR; replicate values, Fig_4g
T1 construct: expressed in transfected cells; host or cells: HTLA cells

[2] = target: T2, 320 non-olfactory GPCRs (Homo sapiens, UniProt P32248)
T2 construct: expressed in transfected cells; host or cells: HTLA cells
T2 sequence (P32248 25-378): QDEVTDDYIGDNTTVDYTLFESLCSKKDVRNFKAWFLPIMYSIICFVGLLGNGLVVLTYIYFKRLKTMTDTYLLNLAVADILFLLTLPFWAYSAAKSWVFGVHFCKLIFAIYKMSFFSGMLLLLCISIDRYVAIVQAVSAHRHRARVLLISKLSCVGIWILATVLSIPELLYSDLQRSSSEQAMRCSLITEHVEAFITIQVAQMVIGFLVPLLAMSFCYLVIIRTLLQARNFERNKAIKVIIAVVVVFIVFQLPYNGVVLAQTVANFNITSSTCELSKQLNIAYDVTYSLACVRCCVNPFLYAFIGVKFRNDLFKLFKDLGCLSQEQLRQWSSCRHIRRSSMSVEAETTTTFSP

[3] = target: T3, 320 non-olfactory GPCRs (Homo sapiens, UniProt Q9UBS5)
T3 construct: expressed in transfected cells; host or cells: HTLA cells
T3 sequence (Q9UBS5 20-961): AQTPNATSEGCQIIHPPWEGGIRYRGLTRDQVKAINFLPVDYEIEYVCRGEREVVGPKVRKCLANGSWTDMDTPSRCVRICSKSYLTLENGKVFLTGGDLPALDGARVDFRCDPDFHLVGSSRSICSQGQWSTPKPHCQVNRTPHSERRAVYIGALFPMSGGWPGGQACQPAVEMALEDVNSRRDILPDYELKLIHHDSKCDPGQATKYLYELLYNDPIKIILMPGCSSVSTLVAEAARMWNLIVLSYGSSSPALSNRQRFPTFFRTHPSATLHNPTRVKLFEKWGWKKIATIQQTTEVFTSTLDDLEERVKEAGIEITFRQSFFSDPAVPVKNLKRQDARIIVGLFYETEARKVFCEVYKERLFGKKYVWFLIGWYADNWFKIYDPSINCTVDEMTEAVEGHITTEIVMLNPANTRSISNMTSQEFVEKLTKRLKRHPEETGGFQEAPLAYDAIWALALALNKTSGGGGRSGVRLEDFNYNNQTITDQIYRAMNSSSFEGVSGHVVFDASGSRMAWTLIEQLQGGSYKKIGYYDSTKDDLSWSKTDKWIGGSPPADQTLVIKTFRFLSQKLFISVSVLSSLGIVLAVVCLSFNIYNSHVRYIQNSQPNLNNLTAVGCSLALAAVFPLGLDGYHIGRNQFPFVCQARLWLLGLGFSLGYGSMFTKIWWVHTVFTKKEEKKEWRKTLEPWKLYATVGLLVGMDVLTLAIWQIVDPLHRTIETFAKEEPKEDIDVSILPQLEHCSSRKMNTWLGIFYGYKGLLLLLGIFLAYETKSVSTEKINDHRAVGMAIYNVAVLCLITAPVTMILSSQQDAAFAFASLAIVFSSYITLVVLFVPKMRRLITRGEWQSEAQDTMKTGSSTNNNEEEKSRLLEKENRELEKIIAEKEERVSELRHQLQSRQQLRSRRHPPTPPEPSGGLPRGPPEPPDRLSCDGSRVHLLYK

[4] = target: T4, 320 non-olfactory GPCRs (Homo sapiens, UniProt P50391); settings: receptor NPY4R; replicate values, Fig_4g
T4 construct: expressed in transfected cells; host or cells: HTLA cells
T4 sequence (P50391 whole entry): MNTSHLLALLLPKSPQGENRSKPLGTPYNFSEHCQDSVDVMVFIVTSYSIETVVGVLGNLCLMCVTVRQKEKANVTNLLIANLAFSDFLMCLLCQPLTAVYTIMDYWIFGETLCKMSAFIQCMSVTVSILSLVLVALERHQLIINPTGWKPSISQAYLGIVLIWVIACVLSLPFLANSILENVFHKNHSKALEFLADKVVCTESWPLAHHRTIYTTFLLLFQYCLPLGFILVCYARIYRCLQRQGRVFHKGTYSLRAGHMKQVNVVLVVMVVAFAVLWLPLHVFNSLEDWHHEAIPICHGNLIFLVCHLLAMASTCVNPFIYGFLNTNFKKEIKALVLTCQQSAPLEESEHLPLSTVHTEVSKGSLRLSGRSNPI
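Wherever Fold of Basal is given: compound tested at 1 µM final concentration.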
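Wherever GPCRome agonism screen response is given: fold over basal response of each receptor without drug.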

T1 sequence (P43088 whole entry): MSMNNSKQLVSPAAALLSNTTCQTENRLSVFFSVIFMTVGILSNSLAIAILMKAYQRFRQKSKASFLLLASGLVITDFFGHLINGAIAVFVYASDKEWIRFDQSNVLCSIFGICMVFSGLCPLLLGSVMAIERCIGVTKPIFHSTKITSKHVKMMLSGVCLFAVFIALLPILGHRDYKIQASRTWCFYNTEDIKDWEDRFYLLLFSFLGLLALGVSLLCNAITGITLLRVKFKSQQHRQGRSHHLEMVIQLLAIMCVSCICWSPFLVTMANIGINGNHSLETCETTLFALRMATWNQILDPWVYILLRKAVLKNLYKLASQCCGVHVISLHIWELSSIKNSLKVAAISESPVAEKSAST

For `CCOc1cccc2cc(C(C)NCC3(O)CCCCC3)oc12` (stereo not shown) [O4LE6], the “GPCRome agonism screen response” value [1] was 0.453 and 1.129 and 0.3537 and 0.6778, the “Fold of Basal” value [2] was 1.25 and 0.8767 and 0.9045 and 1.727 and the “Fold of Basal” value [3] was 0.7465 and 0.7299 and 1.058 and 0.6886. For the same compound, the “GPCRome agonism screen response” value [4] was 0.9177 and 0.7118 and 1.258 and 0.6362.
